One series has as its target T1, rat mGluR1a receptor (Rattus norvegicus, UniProt P23385).
T1 construct: expressed in transfected cells; host or cells: HEK 293 cells, transient transfection; membrane preparation
In words: Binding assay for the characterization of mGluR 1 antagonistic properties (tritiated radioligand displacement). The note with it: membranes of HEK 293 cells transiently transfected with rat mGluR1a; tritiated 1-ethyl-2-methyl-6-oxo-4-(1,1,2-tritritio-1,2,4,5-tetrahydro-benzo[d]azepin-3-yl)-1,6-dihydro-pyrimidine-5-carbonitrile at 3 nM; 1 hour at room temperature. On the procedure:
Binding Assay for the Characterization of mGluR 1 Antagonistic Properties
Binding assay with tritiated 1-ethyl-2-methyl-6-oxo-4-(1,1,2-tritritio-1,2,4,5-tetrahydro-benzo[d]azepin-3-yl)-1,6-dihydro-pyrimidine-5-carbonitrile: HEK 293 cells were transiently transfected with the rat mGluR^1 a receptor. The cells were collected and washed 3 times with PBS. The cell pellets were frozen at −80° C. Membranes were prepared from HEK 293 cells transfected with the rat mGluR^1 a receptor and used in the binding experiments at 10 μg proteins per assay after resuspension in a HEPES NaOH 20 mM, pH=7.4 binding buffer. 1-Ethyl-2-methyl-6-oxo-4-(1,1,2-tritritio-1,2,4,5-tetrahydro-benzo [d]azepin-3-yl)-1,6-dihydro-pyrimidine-5-carbonitrile (S.A 33.4 Ci/mmol) was used at 3 nM final concentration. The incubation with variable concentrations of potential inhibitors was performed for 1 hour at room temperature, the incubate was then filtered onto GF/B glass fiber filter preincubated 1 hour in PEI 0,1% and washed 3 times with 1 ml of cold binding buffer. The radioactivity retained on the unifilter 96 was counted using a Topcount β counter. After correction for non specific binding the data were normalized and the IC50 value calculated using a 4 parameters logistic equation which was fitted to the inhibition curve.
A general note: Loss of bound radioactivity is the signal in a displacement assay; it reports binding, not function.

Experimental findings from patent US6673795B2, “Pyrimidine, pyrazine and triazane derivatives” (Hoffmann-La Roche Inc., priority 2001, dated 2004) are described below.

T1 sequence (P23385 19-1199): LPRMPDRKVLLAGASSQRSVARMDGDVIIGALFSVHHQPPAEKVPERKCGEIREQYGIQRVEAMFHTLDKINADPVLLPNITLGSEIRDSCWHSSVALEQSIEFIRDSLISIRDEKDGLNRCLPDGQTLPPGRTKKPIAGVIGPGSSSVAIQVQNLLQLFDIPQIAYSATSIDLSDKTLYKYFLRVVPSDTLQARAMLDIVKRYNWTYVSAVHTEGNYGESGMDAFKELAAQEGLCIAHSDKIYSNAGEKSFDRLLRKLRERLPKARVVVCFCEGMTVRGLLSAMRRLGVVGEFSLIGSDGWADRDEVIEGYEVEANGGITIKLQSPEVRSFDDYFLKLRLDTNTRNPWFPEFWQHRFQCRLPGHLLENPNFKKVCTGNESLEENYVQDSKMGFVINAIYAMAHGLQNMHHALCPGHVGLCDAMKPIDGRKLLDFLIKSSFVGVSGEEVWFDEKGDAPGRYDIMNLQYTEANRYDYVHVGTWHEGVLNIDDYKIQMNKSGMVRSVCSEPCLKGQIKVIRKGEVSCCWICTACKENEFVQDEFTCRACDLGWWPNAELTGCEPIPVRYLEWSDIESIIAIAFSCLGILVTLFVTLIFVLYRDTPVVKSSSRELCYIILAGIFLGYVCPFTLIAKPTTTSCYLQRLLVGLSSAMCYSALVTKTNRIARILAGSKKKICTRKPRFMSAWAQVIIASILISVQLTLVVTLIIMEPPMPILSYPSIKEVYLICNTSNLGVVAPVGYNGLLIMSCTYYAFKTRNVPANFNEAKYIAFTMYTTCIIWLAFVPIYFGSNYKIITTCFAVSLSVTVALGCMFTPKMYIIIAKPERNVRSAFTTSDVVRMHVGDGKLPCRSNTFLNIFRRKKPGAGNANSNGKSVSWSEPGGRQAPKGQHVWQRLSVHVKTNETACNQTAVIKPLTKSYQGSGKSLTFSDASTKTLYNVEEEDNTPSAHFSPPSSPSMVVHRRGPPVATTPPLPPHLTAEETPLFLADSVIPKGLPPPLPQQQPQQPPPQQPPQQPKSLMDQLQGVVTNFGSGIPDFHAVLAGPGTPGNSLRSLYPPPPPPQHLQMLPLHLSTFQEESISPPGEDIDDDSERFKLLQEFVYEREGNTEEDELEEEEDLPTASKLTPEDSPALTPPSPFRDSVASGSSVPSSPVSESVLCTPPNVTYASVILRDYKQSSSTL

Usually melting point stands for the temperature of the solid-liquid transition. For orientation: IC50 means the midpoint of a concentration-inhibition curve. Read a low IC50 as greater potency. For the compound `Cc1nc(N2CCN(c3ccc(F)cc3)CC2)c([N+](=O)[O-])c(=O)[nH]1` [Example 1, 6-[4-(4-Fluoro-phenyl)-piperazin-1-yl]-2-methyl-5-nitro-3H-pyrimidin-4-one], the melting point was > 250 °C (dec.). On rat mGluR1a receptor, the IC50 turned out to be 810 nM.

`Cc1nc(N2CCC(c3ccccc3)CC2)c([N+](=O)[O-])c(=O)[nH]1` [Example 5, 2-Methyl-5-nitro-6-(4-phenyl-piperidin-1-yl)-3H-pyrimidin-4-one] came in with a melting point of 210 to 213 °C. At rat mGluR1a receptor, this compound displayed an IC50 of 63 nM.

As to `Cc1nc(OCC(F)(F)F)c([N+](=O)[O-])c(N2CCC(c3ccccc3)CC2)n1` [Example 9-2, 2-methyl-5-nitro-4-(4-phenyl-piperidin-1-yl)-6-(2,2,2-trifluoro-ethoxy)-pyrimidine], the melting point is 114 to 117 °C.

As to `CCOc1nc(C)nc(N2CCN(c3ccc(F)cc3)CC2)c1[N+](=O)[O-]` [Example 10-2, 4-ethoxy-6-[4-(4-fluoro-phenyl)-piperazin-1-yl]-2-methyl-5-nitro-pyrimidine], the melting point is 116 to 119 °C. Also, the half-inhibitory concentration (IC50) on rat mGluR1a receptor was 180 nM.

Regarding `Cc1nc(OC(C)C)c([N+](=O)[O-])c(N2CCN(c3ccc(F)cc3)CC2)n1` [Example 11, 4-[4-(4-Fluoro-phenyl)-piperazin-1-yl]-6-isopropoxy-2-methyl-5-nitro-pyrimidine], the melting point fell in the range of 98 to 100 °C.

The compound `Cc1nc(OCC(F)(F)F)c([N+](=O)[O-])c(N2CCN(c3ccc(F)cc3)CC2)n1` [Example 12-2, 4-[4-(4-fluoro-phenyl)-piperazin-1-yl]-2-methyl-5-nitro-6-(2,2,2-trifluoro-ethoxy)-pyrimidine] had a melting point of 92 to 95 °C.

As for `Cc1nc(OCC(F)(F)F)c([N+](=O)[O-])c(N2CCC(c3ccc(F)cc3)CC2)n1` [Example 13-2, 4-[4-(4-fluoro-phenyl)-piperidin-1-yl]-2-methyl-5-nitro-6-(2,2,2-trifluoro-ethoxy)-pyrimidine], the melting point was in the range of 61 to 64 °C.

With `COCCOc1nc(C)nc(N2CCC(c3ccc(F)cc3)CC2)c1[N+](=O)[O-]` [Example 14-2, 4-[4-(4-fluoro-phenyl)-piperidin-1-yl]-6-(2-methoxy-ethoxy)-2-methyl-5-nitro-pyrimidine], the melting point lay within 45 to 48 °C.

In the case of `Cc1nc(N2CCC(c3ccc(F)cc3)CC2)c([N+](=O)[O-])c(=O)n1CC#N` [Example 16, {4-[4-(4-Fluoro-phenyl)-piperidin-1-yl]-2-methyl-5-nitro-6-oxo-6H-pyrimidin-1-yl}-acetonitrile], the melting point is 213 to 215 °C (dec.).

In turn, `Cc1nc(N2CCC(c3ccc(F)cc3)CC2)c([N+](=O)[O-])c(=O)n1CCCCO` [Example 18, 6-[4-(4-Fluoro-phenyl)-piperidin-1-yl]-3-(4-hydroxy-butyl)-2-methyl-5-nitro-3H-pyrimidin-4-one] gave a melting point of 154 to 156 °C. For the same compound, the IC50 on rat mGluR1a receptor was determined as 280 nM.

For `CCc1nc(C#N)c(N2CCN(c3ccccc3)CC2)nc1C` [Example 75-1, 5′-ethyl-6′-methyl-4-phenyl-3,4,5,6-tetrahydro-2H-[1,2′]bipyrazinyl-3′-carbonitrile], the melting point lay in the range of 99 to 101 °C. On rat mGluR1a receptor, this compound showed a 50% inhibitory concentration (IC50) of 17 nM.

For the compound `Cc1nc(N2CCN(c3ccc(F)cc3)CC2)c(C#N)nc1-c1ccccc1` [Example 80, 4-(4-Fluoro-phenyl)-6′-methyl-5′-phenyl-3,4,5,6-tetrahydro-2H-[1,2′]bipyrazinyl-3′-carbonitrile], the melting point lay within 117 to 120 °C.

`N#Cc1ncc(NCCO)nc1N1CCC(c2ccc(F)cc2)CC1` [Example 82, 3-[4-(4-Fluoro-phenyl)-piperidin-1-yl]-5-(2-hydroxy-ethylamino)-pyrazine-2-carbonitrile] came in with a melting point of 155 to 158 °C.

Compound `N#Cc1ncc(NCCO)nc1N1CCN(c2ccc(F)cc2)CC1` [Example 83, 4-(4-Fluoro-phenyl)-6′-(2-hydroxy-ethylamino)-3,4,5,6-tetrahydro-2H-[1,2′]bipyrazinyl-3′-carbonitrile] came in with a melting point of 149 to 151 °C. This compound yielded an IC50 at rat mGluR1a receptor of 1000 nM.
